Test results published in US4618605A, “Process for the production of β-elemonic acid and pharmaceutical preparations containing said acid” (priority 1983, dated 1986).
Read-outs that look alike come from different tables or passages of the source.

Experiments:
[1] = acute peroral toxicity in the mouse; settings: in vivo
Protocol: Determination of toxicity of β-elemonic acid was carried out on the mouse and the rat. Acute peroral toxicity in the mouse: 4.640 mg/kg.

CVF paw edema = experiment: rat paw edema induced by cobra venom factor (CVF); format: in vivo; settings: for Inhibition effect (%): rat, after three hours, vs control group; for ED30: Rattus norvegicus, po, 3 h, read-out: ED30 CVF edema
Protocol: 2. As a further experiment for testing the antiphlogistic effectiveness there was used rat paw edema induced by means of cobra venom factor (CVF). Since CVF produces inflammation by way of activation of the complementary system, inhibiting substances could open up a new kind of working principle for application in inflammatory illnesses.
Edema was provoked by subplantar injection of CVF (10 units in 1 ml NaCl solution 0.9%) in an amount of 0.1 ml of solution per paw, into one hind paw of each of a number of rats weighing from 120-160 g. After administration of the test substance in a volume of 10 ml/kg body weight the volume of the paw was determined in an overflow device. After three hours the final value was determined. For each dose the test was carried out with five test and five control animals of one sex, and repeated with the same number of animals of the opposite sex. The result was expressed as percentage inhibition of the edema compared with the control group.

carrageenin paw edema = experiment: carrageenin rat paw edema test of Hillebrecht (antiphlogistic effectiveness); format: in vivo; settings: for Inhibiting effect (%): rat, after three hours, vs control group
Protocol: 1. The antiphlogistic effectiveness was determined by the rat paw edema test of Hillebrecht (J. Hillebrecht, Arzneim, Forsch. 1954, Vol. 4, p. 607). In this test, rats weighing from 120 g-160 g were given a subplantar dose of carrageenin (0.5% in 0.9% NaCl solution) in an amount of 0.1 ml of solution per paw, using one hind paw of each rat, to produce edema. After administration of the test substance, which as a rule should not exceed a volume of 10 ml/kg body weight, the volume of the paw was determined in an overflow device. After three hours the final value was determined. For each dosage level the experiment was performed with five test and five control animals of one sex and repeated with the same number of animals of the opposite sex. The result is expressed as the percentage inhibition of edema as compared with the control group.

adjuvant arthritis [2] = experiment: adjuvant arthritis test of Pearson, prophylactic application; format: in vivo, Wistar rats; settings: for inhibition values (%): prophylactic; for ED50: Rattus norvegicus, po, 408 h, read-out: ED50 Adjuvant arthritis prophyl.; for antiphlogistic activity (in words): appraisal from ED50 values in the arthritis test
Protocol: 3. The adjuvant arthritis test of C. M. Pearson, Proc. Soc. Exp. Biol. 91, 95-101 (1956) was carried out as a further relevant animal experiment for the examination of anti-rheumatic substances.
(§1) Ten Wistar rats weighing from 120-150 g were used for each dose. The same number of animals served as a control. Arthritis was induced with 0.5 ml Freud's adjuvant, by subplantar injection. The test lasted 17 days. At the beginning of the test the paw volume of the non-injected hind paw was determined and this was used as a starting value. Further volume measurements were carried out on the 14th and 17th days of the test. For the result the difference between the starting and finishing volumes of the paw, both of the test group and of the control group, was obtained and the inhibition expressed as a percentage. With daily administration from the time of induction of arthritis onwards (prophylactic application) the following inhibition values (%) were obtained: […]

young rats = experiment: comparative side-effect investigation with prednisolone on young rats, 8 days; format: in vivo, rat; parameters: key: 0: no effect; (-): weak inhibition; -: definite inhibition; ---: very strong inhibition
Protocol: β-Elemonic acid was compared with prednisolone for determining side-effects. Known antiphlogistic substances can cause undesired side-effects, some of which arise even at therapeutic doses. For this reason a comparative investigation of β-elemonic acid with prednisolone was undertaken (H. J. Lee, M. R. I. Soliman in Science 215 989-991, 1982). Carried out on young rats, the duration of application was 8 days. β-Elemonic acid was administered orally up to a dosage of 316 mg/kg body weight, and prednisolone intramuscularly up to a dosage of 5 mg/kg body weight.

rats = experiment: dose-range study on rats, daily application for 14 days; format: in vivo, rat; settings: daily for 14 days, 681.0 and 1,000.0 mg/kg body weight
[3] = therapeutic range (therapeutic indices); format: in vivo; settings: for selectivity ratio: in vivo, po
Text: An assessment of the effectiveness of elemonic acid was compared with known substances. A quantitative assessment of β-elemonic acid in comparison with known antiphlogistic substances was made possible by determining the therapeutic ranges, i.e. by the safety with which an active ingredient can be used. […] The therapeutic range is given (1) by the ratio between the LD50 and the ED30 in the CVF paw oedema and (2) by the ratio between the dose threshold value of stomach intolerance and the ED50 in the arthritis model. The ED30 and the ED50 values were determined with the aid of a regression line: […]

adrenal gland = adrenal gland weights at termination of the adjuvant arthritis (17-day administration); format: in vivo, Wistar rats; settings: 17-day prophylactic administration
Protocol: as §1

adjuvant arthritis [4] = experiment: adjuvant arthritis test, therapeutic application beginning ten days after induction; format: in vivo, Wistar rats; settings: for inhibition values (%): therapeutic
stomach mucosa = experiment: induction of stomach ulcers (acute stomach mucous tolerability); format: in vivo, Wistar rats; settings: for Effect (ulcer induction): single administration, after 3.5 hours; for Threshold dose Acute stomach mucous tolerability: p.o.
Text: The most frequent side effect in known anti-rheumatics is poor gastrointestinal tolerance with ulcer induction. For this reason β-elemonic acid was examined for the induction of ulcers. The determination of ulcer formation was made according to W. J. R. Whittle, Brit. J. Pharmacology, 1975, Vol. 55, pp. 242-243; L. Mariani, Europ. J. Toxicol. Eviron., 1975, Vol. 8, pp. 335-39; and R. Menguy and L. Desbaillets, Proc. Soc. Bio., Vol. 125, p. 1108. In the tests, for each dose and control ten male Wistar rats (120-150 g, kept fasting for 16 hours) were used. The provocation of bleeding stomach ulcer took place by oral application of the active ingredient. The animals were sacrificed after 3.5 hours, the stomach removed, opened along the larger curvature and stretched on a foam polystyrene plate. The median ulcer factor of the test group and the control group was determined.

[5] = po, Table 9, read-out: LD50 Mouse
[6] = LD50 / ED30 in the CVF paw oedema, read-out: Therapeutic index 1 (3./1.)
[7] = rat, dose threshold value of stomach intolerance / ED50 in the arthritis model, read-out: Therapeutic index 2 (4./1.)

Compound: CCCCC1C(=O)N(c2ccccc2)N(c2ccccc2)C1=O [Phenylbutazone]
- LD50 ([1]; oral, comparison, read-out: LD50): 465 mg/kg
- Inhibition effect (%) (CVF paw edema; 1 mg/kg p.o.): +10%
- Inhibition effect (%) (CVF paw edema; 10 mg/kg p.o.): -28%
- Inhibition effect (%) (CVF paw edema; 100 mg/kg p.o.): -34%
- ED30 (CVF paw edema): 37.7 mg/kg
- inhibition of CVF edema (in words) (CVF paw edema; compared with β-elemonic acid): weaker inhibition values
- Inhibiting effect (%) (carrageenin paw edema; 100 mg/kg p.o.): -41%
- reduction of edema (in words) (carrageenin paw edema; carrageenin paw edema test in rats): a reduction of edema only at a fairly high dosage level
- inhibition values (%) (adjuvant arthritis [2]; 14th day p.i., 10 mg/kg p.o.): -42%
- inhibition values (%) (adjuvant arthritis [2]; 14th day p.i., 31,6 mg/kg p.o.): -57%
- inhibition values (%) (adjuvant arthritis [2]; 14th day p.i., 82,5 mg/kg p.o.): -58%
- inhibition values (%) (adjuvant arthritis [2]; 17th day p.i., 10 mg/kg p.o.): -31%
- inhibition values (%) (adjuvant arthritis [2]; 17th day p.i., 31,6 mg/kg p.o.): -51%
- inhibition values (%) (adjuvant arthritis [2]; 17th day p.i., 82,5 mg/kg p.o.): -43%
- ED50 (adjuvant arthritis [2]; p.o., regression line): 47.5 mg/kg
- antiphlogistic activity (in words) (adjuvant arthritis [2]): weakly active

Compound: C[C@]12C=CC(=O)C=C1CC[C@@H]1[C@@H]2[C@@H](O)C[C@@]2(C)[C@H]1CC[C@]2(O)C(=O)CO [Prednisolone, reference compound]
- Blood picture Leucocytes (young rats; 5 mg/kg intramuscularly): -
- Blood picture Lymphocytes (young rats; 5 mg/kg intramuscularly): -
- Body weight development (young rats; 5 mg/kg intramuscularly): -
- Liver weights (young rats; 5 mg/kg intramuscularly): 0
- Thymus weight (young rats; 5 mg/kg intramuscularly): ---
- Blood picture Leucocytes (young rats; 2,5 mg/kg intramuscularly): 0
- Blood picture Lymphocytes (young rats; 2,5 mg/kg intramuscularly): (-)
- Body weight development (young rats; 2,5 mg/kg intramuscularly): -
- Liver weights (young rats; 2,5 mg/kg intramuscularly): 0
- Thymus weight (young rats; 2,5 mg/kg intramuscularly): ---

Compound: CC(C)=CCC[C@H](C(=O)O)[C@@H]1CC[C@]2(C)C3=C(CC[C@@]12C)[C@@]1(C)CCC(=O)C(C)(C)[C@@H]1CC3 [β-Elemonic acid, 13α, 14β, 17α, 20S,-3-Oxo-lanosta-8,24-dien-21-carboxylic acid]
- LD50 [1, 5]: 4640 mg/kg
- LD50 ([1]; po, peroral, read-out: Acute peroral toxicity): 4.64 mg/kg
- aggravating side-effects (rats): no occurrences of aggravating side-effects
- Inhibition effect (%) (CVF paw edema; 1 mg/kg p.o.): -24%
- Inhibition effect (%) (CVF paw edema; 10 mg/kg p.o.): -32%
- Inhibition effect (%) (CVF paw edema; 100 mg/kg p.o.): -49%
- ED30 (CVF paw edema): 3.98 mg/kg
- selectivity ratio [3, 6]: 1160
- selectivity ratio [3, 7]: 68
- Therapeutic indices 1 and 2 compared with comparison substances (in words) ([3]; vs phenylbutazone and indomethacin): several times higher
- Blood picture Leucocytes (young rats; 100 mg/kg orally): 0
- Blood picture Lymphocytes (young rats; 100 mg/kg orally): 0
- Body weight development (young rats; 100 mg/kg orally): (-)
- Liver weights (young rats; 100 mg/kg orally): 0
- Thymus weight (young rats; 100 mg/kg orally): 0
- Blood picture Leucocytes (young rats; 316 mg/kg orally): 0
- Blood picture Lymphocytes (young rats; 316 mg/kg orally): 0
- Body weight development (young rats; 316 mg/kg orally): (-)
- Liver weights (young rats; 316 mg/kg orally): 0
- Thymus weight (young rats; 316 mg/kg orally): (-)
- adrenal gland weights (adrenal gland): inside the normal limits
- Inhibiting effect (%) (carrageenin paw edema; 1 mg/kg p.o.): -7%
- Inhibiting effect (%) (carrageenin paw edema; 10 mg/kg p.o.): -21%
- Inhibiting effect (%) (carrageenin paw edema; 100 mg/kg p.o.): -33%
- inhibition values (%) (adjuvant arthritis [4]; 14th day p.i., 1 mg/kg p.o.): +36%
- inhibition values (%) (adjuvant arthritis [4]; 14th day p.i., 10 mg/kg p.o.): -13%
- inhibition values (%) (adjuvant arthritis [4]; 14th day p.i., 100 mg/kg p.o.): -38%
- inhibition values (%) (adjuvant arthritis [4]; 17th day p.i., 1 mg/kg p.o.): -31%
- inhibition values (%) (adjuvant arthritis [4]; 17th day p.i., 10 mg/kg p.o.): -42%
- inhibition values (%) (adjuvant arthritis [4]; 17th day p.i., 100 mg/kg p.o.): -81%
- inhibition values (in words) (adjuvant arthritis [4]; therapeutic application beginning ten days after induction): pronounced inhibition values
- inhibition values (%) (adjuvant arthritis [2]; 14th day p.i., 1 mg/kg p.o.): -55%
- inhibition values (%) (adjuvant arthritis [2]; 14th day p.i., 10 mg/kg p.o.): -62%
- inhibition values (%) (adjuvant arthritis [2]; 14th day p.i., 100 mg/kg p.o.): -165%
- inhibition values (%) (adjuvant arthritis [2]; 17th day p.i., 1 mg/kg p.o.): -38%
- inhibition values (%) (adjuvant arthritis [2]; 17th day p.i., 10 mg/kg p.o.): -47%
- inhibition values (%) (adjuvant arthritis [2]; 17th day p.i., 100 mg/kg p.o.): -92%
- ED50 (adjuvant arthritis [2]): 4.64 mg/kg
- Effect (ulcer induction) (stomach mucosa; 10 mg/kg p.o.): 0
- Effect (ulcer induction) (stomach mucosa; 100 mg/kg p.o.): 0
- Effect (ulcer induction) (stomach mucosa; 316 mg/kg p.o.): 0
- Threshold dose Acute stomach mucous tolerability (stomach mucosa): 316.00 mg/kg

Compound: COc1ccc2c(c1)c(CC(=O)O)c(C)n2C(=O)c1ccc(Cl)cc1 [Indomethacin, reference compound]
- LD50 [1, 5]: 40 mg/kg
- ED30 (CVF paw edema): 4.58 mg/kg
- selectivity ratio [3, 6]: 8.73
- selectivity ratio [3, 7]: 21.6
- ED50 (adjuvant arthritis [2]): 0.26 mg/kg
- antiphlogistic activity (in words) (adjuvant arthritis [2]): strongly active
- Threshold dose Acute stomach mucous tolerability (stomach mucosa): 5.62 mg/kg
